Laboratory results as given in US20240116985A1, “STAPLED PEPTIDES AND METHODS THEREOF” (priority 2020, published 2024).
Read-outs that look alike come from different tables or passages of the source.

Columns and labels:
[1] = biological target: T1, beta-catenin/TCF4 engagement (Homo sapiens, UniProt P35222); test: Nano-BRET target engagement assay (B-cat-Halo & TCF4-Luc in HEK293 cells); assay type: cell-based; conditions: read-out: NanoBRET Abs IC50
T1 construct: expressed in transfected cells; host or cells: HEK293
T1 sequence (P35222 1-781): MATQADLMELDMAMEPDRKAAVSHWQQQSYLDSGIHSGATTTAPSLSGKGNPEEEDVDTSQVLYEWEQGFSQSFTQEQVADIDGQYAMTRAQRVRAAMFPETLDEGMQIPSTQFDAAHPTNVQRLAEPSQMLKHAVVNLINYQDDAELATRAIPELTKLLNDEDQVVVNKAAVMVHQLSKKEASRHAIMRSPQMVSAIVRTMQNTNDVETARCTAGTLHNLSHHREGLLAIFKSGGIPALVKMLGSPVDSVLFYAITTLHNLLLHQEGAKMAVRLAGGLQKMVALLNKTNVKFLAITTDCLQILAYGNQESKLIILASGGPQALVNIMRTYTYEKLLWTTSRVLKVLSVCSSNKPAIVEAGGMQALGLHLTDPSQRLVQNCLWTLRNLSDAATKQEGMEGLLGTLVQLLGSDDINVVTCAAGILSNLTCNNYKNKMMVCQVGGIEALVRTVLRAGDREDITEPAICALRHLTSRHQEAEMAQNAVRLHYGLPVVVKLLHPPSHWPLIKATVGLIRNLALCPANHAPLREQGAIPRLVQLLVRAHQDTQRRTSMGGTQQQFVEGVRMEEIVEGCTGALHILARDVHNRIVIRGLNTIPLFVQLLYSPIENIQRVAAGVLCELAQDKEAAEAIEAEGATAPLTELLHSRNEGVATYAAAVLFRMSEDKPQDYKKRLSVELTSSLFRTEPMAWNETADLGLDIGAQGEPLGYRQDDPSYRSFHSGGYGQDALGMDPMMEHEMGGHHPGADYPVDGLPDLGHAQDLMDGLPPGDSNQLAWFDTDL

[2] = biological target: T2, full-length beta-Catenin (Uniprot ID P35222) (Homo sapiens, UniProt P35222); test: Fluorescence polarization IC50 (beta-catenin / 5FAM-TCF4 10-53 competition); assay type: binding; conditions: fluorescence polarization; read-out: beta-Catenin FP IC50
T2 construct: 10 nM full-length beta-Catenin (Uniprot ID P35222)
T2 sequence (P35222 1-781): T1 sequence (P35222 1-781)

SMILES | IC50 ([1]; absolute IC50) | IC50 [2] | IC50 [1]
CCCC[C@@H]1NC(=O)[C@H](CC(=O)O)NC(=O)[C@]2(CC=CCCCC3(CCCC=CCCCCCC[C@@](C)(C(=O)N[C@@H](Cc4ccccc4)C(=O)N[C@@H](Cc4csc5ccccc45)C(=O)N[C@@H](CCC(N)=O)C(N)=O)NC(=O)[C@H](CCC(N)=O)NC(=O)[C@H](Cc4ccccc4)NC(=O)[C@H](C)NC(=O)[C@H](C)NC(=O)[C@H](CCC(=O)O)NC(=O)[C@H](CC(=O)O)NC3=O)NC1=O)CCCN2C(C)=O (stereo partly drawn) [I-1521, Ac-PL3-Asp-nLeu-B5-Asp-Glu-Ala-Ala-Phe-Gln-S8-Phe-BztA-Gln-NH2] | 6 µM | 0.016 µM | –
CC(=O)N1CCC[C@]12CC=CCCCC1(CCCC=CCCCOC(=O)N3CC[C@@](C(=O)N[C@@H](Cc4ccsc4)C(=O)N[C@@H](Cc4ccc(Cl)c(Cl)c4)C(=O)N[C@@H](CCC(N)=O)C(N)=O)(C3)NC(=O)[C@H](CC(N)=O)NC(=O)[C@H](Cc3ccccc3)NC(=O)[C@H](C)NC(=O)C(C)(C)NC(=O)[C@H]([C@@H](C)O)NC(=O)[C@H](CC(N)=O)NC1=O)NC(=O)[C@H](CC(C)(C)C)NC(=O)[C@H](CC(=O)O)NC2=O (stereo partly drawn) [I-2417, Ac-PL3-Asp-Npg-B5-Asn-Thr-Aib-Ala-Phe-Asn-PyrS2-3Thi-34C1F-Gln-NH2] | 21.6 µM | 0.158 µM | –
CC(=O)N1CCC[C@]12CC1OC1CCCC1(CCCC=CCCCOC(=O)N3CC[C@@](C(=O)N[C@@H](Cc4ccsc4)C(=O)N[C@@H](Cc4csc5ccccc45)C(=O)N[C@@H](CCC(N)=O)C(N)=O)(C3)NC(=O)[C@H](CC(C)C)NC(=O)[C@H](Cc3ccccc3)NC(=O)[C@H](C)NC(=O)[C@H](C)NC(=O)[C@H](CN(CC(=O)O)CC(F)(F)F)NC(=O)[C@H](CC(=O)O)NC1=O)NC(=O)[C@H](CC(C)(C)C)NC(=O)[C@H](CC(=O)O)NC2=O (stereo partly drawn) [I-2595, Ac-PL3-Asp-Npg-B5-Asp-TfeGA-Ala-Ala-Phe-Leu-PyrS2-3Thi-BztA-Gln-NH2] | – | 0.356 µM | > 20 µM
CC(=O)N1CCC[C@]12CC=CCCCC1(CCCC=CCCCOC(=O)N3CC[C@@](C(=O)N[C@@H](Cc4ccsc4)C(=O)N[C@@H](Cc4csc5ccccc45)C(=O)N[C@@H](CCC(N)=O)C(N)=O)(C3)NC(=O)[C@H](CC(C)C)NC(=O)[C@H](Cc3ccccc3)NC(=O)[C@H](CC(=O)N3CCOCC3)NC(=O)[C@H](C)NC(=O)[C@H](CC(=O)O)NC(=O)[C@H](CC(=O)O)NC1=O)NC(=O)[C@H](CC(C)(C)C)NC(=O)[C@H](CC(=O)O)NC2=O (stereo partly drawn) [I-1507, Ac-PL3-Asp-Npg-B5-Asp-Asp-Ala-MorphAsn-Phe-Leu-PyrS2-3Thi-BztA-Gln-NH2] | > 20 µM | 0.03 µM | –
CC(=O)N1CCC[C@]12CC=CCCCC1(CCCC=CCCCOC(=O)N3CC[C@@](C(=O)N[C@@H](Cc4ccsc4)C(=O)N[C@@H](Cc4csc5ccccc45)C(=O)N[C@H](CCC(N)=O)C(N)=O)(C3)NC(=O)[C@H](CC(C)C)NC(=O)[C@H](Cc3ccccc3)NC(=O)[C@H](C)NC(=O)[C@H](C)NC(=O)[C@H](CC(=O)O)NC(=O)[C@H](CC(=O)O)NC1=O)NC(=O)[C@H](CC(C)(C)C)NC(=O)[C@H](CC(=O)O)NC2=O (stereo partly drawn) [I-1500, Ac-PL3-Asp-Npg-B5-Asp-Asp-Ala-Ala-Phe-Leu-PyrS2-3Thi-BztA-dGln-NH2] | 4.7 µM | 0.022 µM | –
CC(=O)N1CCC[C@]12CC=CCCCC1(CCCC=CCCCOC(=O)N3CC[C@@](C(=O)N[C@@H](Cc4cccc(F)c4)C(=O)N[C@@H](Cc4csc5ccccc45)C(=O)N[C@@H](C)C(N)=O)(C3)NC(=O)[C@H](CC(C)C)NC(=O)[C@H](Cc3ccccc3)NC(=O)[C@H](C)NC(=O)[C@H](C)NC(=O)[C@H](Cc3cccc(C(=O)O)c3)NC(=O)[C@H](CC(=O)O)NC1=O)NC(=O)[C@H](CC(C)(C)C)NC(=O)[C@H](CC(=O)O)NC2=O (stereo partly drawn) [I-2261, Ac-PL3-Asp-Npg-B5-Asp-3COOHF-Ala-Ala-Phe-Leu-PyrS2-3FF-BztA-Ala-NH2] | 6.4 µM | 0.034 µM | –
